Laboratory results reported in publication PMC8659006 (Molecules, 2021).
≈ marks a conversion by molar mass, not a printed value. Like-named read-outs stand apart in the source and are kept apart here. Where no end group is shown, it is not given here.

Columns and labels:
ETEC K88 [1] = test: Thermal stability, antibacterial activity by inhibition zone; type: physicochemical, Enterotoxigenic Escherichia coli; details: for Antimicrobial activity after heat treatment: n = 3
Protocol: (§1) ETEC K88 was used as a reference strain. […] The experiment was performed in three independent replicates.
(§2) The reference strain was ETEC K88.

ETEC K88 [2] = test: Scanning electron microscopy of treated bacteria; type: cell-based, Enterotoxigenic Escherichia coli
Protocol: Scanning electron microscopy (SEM) was used to observe the damage of CLP to bacterial cell membranes. ETEC K88 was incubated at 37 °C for 12 h and then diluted with PBS to 5 × 10^5 CFU/mL. […] The CLP-treated ETEC K88 was washed with PBS and treated with 2.5% glutaraldehyde overnight. After dehydrating with alcohol and drying for gold coating, the samples were imaged by Quanta 200 (FEI).

P.aeruginosa 337005 = type: cell-based, Pseudomonas aeruginosa
Protocol: (§3) The reference strains P. aeruginosa 337005, S. aureus 1882 and ETEC K88 were cultivated at 37 °C for 12 h. […] Then, 180 µL MH broth per well were added to the microtiter plate (Corning, Corning, NY, USA), and then 2 µL of the diluted bacterial solution was dispensed into each well. Peptides were then serially diluted with Milli-Q water, and 20 µL dilutions were added to the wells. Then, 2 µL Milli-Q water instead of 2 µL diluted bacterial solution was used as a blank control, and 20 µL Milli-Q water instead of 20 µL peptide dilution was used as a growth control. After culturing for 12 h at 37 °C, the MIC of the reference strain was observed, and the experiment was performed in three independent replicates.

ETEC K88 [3] = test: Inhibition zone, Kirby–Bauer diffusion method; type: cell-based, Enterotoxigenic Escherichia coli; details: 50 µL on filter disk, 37 °C, 12 h, compared to PBS control and SUMO-TEV-CLP, n = 3
Protocol: as §1

ETEC K88 [4] = test: Propidium iodide uptake (membrane permeabilization); type: cell-based, Enterotoxigenic Escherichia coli; details: 100% = 0.05% SDS, average of 3 replicates
Protocol: PI can stain DNA, but cannot penetrate the complete cell membrane. Therefore, the fluorescence intensity of PI is positively correlated with the degree of cell membrane damage. The reference strain ETEC K88 was cultured at 37 °C for 12 h, and then diluted to 5 × 10^5 CFU/mL. Then, 10 µg/mL PI (Thermo Fisher, Waltham, MH, USA) was added to the diluted bacterial solution. […] The fluorescence intensity was measured using a microplate reader (Synergy H1, Bio Tek, Winooski, VT, USA) at the excitation wavelength and emission wavelength of 535 nm and 617 nm, respectively. During the continued 120 min reaction, the fluorescence values were monitored every 10 min. The PBS was a negative control, and 0.05% SDS was a positive control.

ETEC K88 [5] = test: pH stability, antibacterial activity by inhibition zone; type: physicochemical, Enterotoxigenic Escherichia coli; details: pH 4.0 to 9.0, 2 h, n = 3
Protocol: as §1, §2

[6] = system: P. aeruginosa 337005, S. aureus 1882 and ETEC K88; type: cell-based
Protocol: as §3

S. aureus 1882 = type: cell-based, Staphylococcus aureus
Protocol: as §3

human erythrocytes = details: 90 µg/mL; cited from earlier work
Excerpt: The low hemolytic activity of antimicrobial peptides on mammalian red blood cells is very important in clinical applications.

ETEC K88 [7] = test: MIC, microbroth dilution; type: cell-based, Enterotoxigenic Escherichia coli; details: micro-dilution in MH broth, 37 °C, 12 h, three independent replicates
Protocol: as §3

[8] = micro-dilution in MH broth, 37 °C, 12 h, three independent replicates
[9] = range over P. aeruginosa 337005, S. aureus 1882, ETEC K88

Compound: KWKLFKKIIGKEFKRIVQRIKDFLRNLVPRTERKDVT [rCLP]
- Antimicrobial activity after heat treatment (ETEC K88 [1]; 70 °C for 30 min): almost completely retained
- Antimicrobial activity after heat treatment (ETEC K88 [1]; temperatures above 70 °C (up to 100 °C), 30 min): significantly reduced the activity
- Membrane morphology by SEM (ETEC K88 [2]): damaged the integrity of the bacterial cell membrane
- MIC (P.aeruginosa 337005; 337005, 12 h): 2 µg/mL
- Inhibition zone against ETEC K88 (ETEC K88 [3]): significantly inhibited the growth
- Increase of PI fluorescence uptake (ETEC K88 [4]; 0.5 × MIC (1 µg/mL), 50 min): 16.0%
- Increase of PI fluorescence uptake (ETEC K88 [4]; 0.5 × MIC (1 µg/mL), 120 min): 51.5%
- Increase of PI fluorescence uptake (ETEC K88 [4]; 2 × MIC (4 µg/mL), 50 min): 83.3%
- Increase of PI fluorescence uptake (ETEC K88 [4]; 2 × MIC (4 µg/mL), 120 min): 97.0%
- Activity maintained throughout pH range (ETEC K88 [5]): more than 74.8%
- MICs for all the three reference strains (range) ([6]; 12 h): 2 to 8 µg/mL
- MIC (S. aureus 1882; 1882, 12 h): 8 µg/mL

Compound: CC[C@H](C)[C@H](NC(=O)[C@H](CCCCN)NC(=O)[C@H](CCC(=O)O)NC(=O)[C@H](CCCCN)NC(=O)[C@H](CO)NC(=O)[C@H](CCCCN)NC(=O)[C@H](CCCNC(=N)N)NC(=O)[C@H](Cc1ccccc1)NC(=O)[C@H](Cc1ccccc1)NC(=O)[C@H](CC(=O)O)NC(=O)CNC(=O)[C@H](CC(C)C)NC(=O)[C@@H](N)CC(C)C)C(=O)NCC(=O)N[C@@H](CCCCN)C(=O)N[C@@H](CCC(=O)O)C(=O)N[C@@H](Cc1ccccc1)C(=O)N[C@@H](CCCCN)C(=O)N[C@@H](CCCNC(=N)N)C(=O)N[C@H](C(=O)N[C@H](C(=O)N[C@@H](CCC(N)=O)C(=O)N[C@@H](CCCNC(=N)N)C(=O)N[C@H](C(=O)N[C@@H](CCCCN)C(=O)N[C@@H](CC(=O)O)C(=O)N[C@@H](Cc1ccccc1)C(=O)N[C@@H](CC(C)C)C(=O)N[C@@H](CCCNC(=N)N)C(=O)N[C@@H](CC(N)=O)C(=O)N[C@@H](CC(C)C)C(=O)N[C@H](C(=O)N1CCC[C@H]1C(=O)N[C@@H](CCCNC(=N)N)C(=O)N[C@H](C(=O)N[C@@H](CCC(=O)O)C(=O)N[C@@H](CO)C(=O)O)[C@@H](C)O)C(C)C)[C@@H](C)CC)C(C)C)[C@@H](C)CC [LL37]
- MIC (P.aeruginosa 337005; [8]): 32 µg/mL (≈ 7.12 µM)
- Hemolysis (human erythrocytes): about 30%
- MIC (ETEC K88 [7]): 16 µg/mL (≈ 3.56 µM)
- MICs for all the three reference strains (range) [6, 9]: 16 to 32 µg/mL
- MIC (S. aureus 1882; [8]): 32 µg/mL (≈ 7.12 µM)

Compound: RKDVY [TP5]
- MICs for all the three reference strains (range) [6, 9]: over 512 µg/mL

Compound: KWKLFKKIIGKEFKRIVQRIKDFLRNLVPRTERKDVT [sCLP]
- Stability compared with recombinant CLP (ETEC K88 [1]; same temperature, pH value and enzyme treatment): almost the same stability
- MIC (P.aeruginosa 337005; 337005, 12 h): 2 µg/mL
- MIC (S. aureus 1882; 1882, 12 h): 8 µg/mL
